Experimental findings from US11980620B2, “Compounds and methods for treatment of Diamond Blackfan anemia” (THE CHILDREN'S MEDICAL CENTER CORPORATION, priority 2017, dated 2024) are described below.

“Also recorded” adds a separate entry of the source.

Series [1] relates to DBA iPSCs. Kind of series: Cytotoxicity (Annexin and DAPI positive cells) at varying doses. The format is cell-based, human. Particulars: drug doses up to 20 μM. An excerpt: FIGS. 9A-9D show compounds screened for rescue of erythroid differentiation defects. […] (FIG. 9B) List of compounds screened that provided promising results. (FIG. 9C) FACS plots showing GlyA and CD71 expression levels for indicated genotype (top panels). Micrographs showing GlyA^+ CD71^+ cells in indicated genotype (bottom panels). (FIG. 9D) Plot showing the percentage of Annexin and DAPI positive cells following varying doses of SMER28.

In series [2] the test system is rps29+/- zebrafish with atg5 knockdown. Kind of series: atg5 morpholino knockdown in rps29+/- zebrafish, hemoglobin staining. The series is classed as in vivo. The settings on record: 1.6 ng atg5 morpholino; SMER28 1 μM. As to the method: FIGS. 11A-11C show effect of SMER28 on CD34+ progenitors. (FIG. 11A) Protein levels of LC3-I and LC3-II in control and SMER28 treated mice. GADPH is used as a loading control. […] (FIG. 11C) Atg5 morpholino treatment of rps29^+/− zebrafish.
(FIG. 13A) Induction of autophagy by SMER28 (40 μM) monitored by protein levels of p62, LC3-I, and LC3-II after 24 hours. Cells were also treated with 5-FU (100 nM) to induce autophagy, or inhibitor of transcription actinomycin D (ActD; 100 nM). (FIG. 13B) Induction of autophagy by SMER28 (40 μM) monitored by protein levels of p62, LC3-I, and LC3-II after 24 hours treatment with or without lysosomal blockade with bafilomycin A (200 nM for 4 hours). Untreated samples are shown at higher exposure, to capture dynamic changes in the LC3-II levels. Rapamycin (200 nM) is a positive control. LC3-II levels relative to GAPDH are quantitated on the right. (FIG. 13C) Erythroid differentiation of CD34-5F cells transduced with shRNAs for luciferase (LUC) or ATG5±SMER28. Representative flow plots and quantitation showing the number of erythroid cells induced by SMER28 (10 μM) normalized to DMSO. […] Representative images (left), and quantitation (right) with embryos grouped by high, medium, and low levels of benzidine staining. […]

Series [3] can be described thus: Dose escalation tolerability in mice. The format is in vivo. The settings on record: dose escalation up to 20 mg/kg. The text has this:
In following evaluation, the effects of administration of SMER28 to mice with irradiation-induced anemia, a model that enables dose-finding and initial testing of safety and bioactivity. […] To assess bioactivity, we measured the levels of autophagic marker LC3 in treated animals. […] (FIG. 10C). We tested the effect of this compound on human cells by treating NSG mice transplanted with human CD34-5F and CB cells. SMER28 increased the output of GlyA^+ RBCs from DBA CD34-5F cells (FIG. 10D).
Drug treatments. SMER28 was purchased from Tocris and diluted in 10 mM aliquots in DMSO. The final concentration for CD34-5F and CB CD34^+erythroid treatments was 0.2-10 μM as indicated in the text. The final concentration for K562 cell treatments was 20-40 μM. Ferric citrate (1-50 μM) and deferoxamine (100-200 μM) (Sigma) were dissolved in PBS and added on days 0-4 of “expansion” culture, and washed off prior to erythroid stage I (days 4-9) differentiation. For in vivo experiments, SMER28 aliquots were diluted in vehicle solution: 30% PEG-400, 5% propylene glycol, and 0.5% Tween-80. Dosing for human xenograft experiments was 2 mg/kg; for mouse models 10-20 mg/kg. Dexamethasone was purchased as Dex-sodium phosphate (DexSP) water-soluble formulation (Santa Cruz), and diluted in PBS vehicle (1 mg/kg). […]

Series [4] has as its system rps29+/- zebrafish embryos. Kind of series: Hemoglobin (benzidine) staining in rps29 mutant zebrafish embryos. The format is in vivo. The method, then: (FIG. 10A) SMER28 rescues RBC output in rps29^+/− zebrafish embryos. The level of hemoglobin in the yolk sac was visualized 40hpf with benzidine staining. Images are representative of the proportion of embryos indicated (of total counted). (FIG. 10B) Quantitation of SMER28 rescue for a range of 0.1-1 μM, with embryos grouped by high, medium, and low levels of hemoglobin staining. (FIG. 10C) Peripheral blood (PB) RBC counts and hematocrit in mice with irradiation-induced anemia. Mice were treated with the PEG400-based vehicle containing DMSO (VEH) (n=11), 1 mg/kg Dex (sodium-phosphate) (n=13), or 10 mg/kg SMER28 (n=9) for 3 weeks, bled, and assessed. Data are combined from 3 independent experiments. (FIG. 10D) Erythroid cells as proportion of the human graft in mice transplanted with DBA CD34-5F progenitors, and treated as in (FIG. 1c). (FIG. 10E) Levels of human engraftment in NSG mouse bone marrow (BM) transplanted with CB CD34^+ cells. Mice were treated with DMSO plus vehicle (VEH) (n=10), 1 mg/kg Dex (sodium-phosphate) (n=6), or 2 mg/kg SMER28 (n=11) for 4 weeks. (FIG. 10F) The proportion of erythroid, myeloid, and lymphoid (B cells) lineages within the human graft in vehicle- and SMER28-treated mice transplanted with CB CD34^+ cells. Only the effect on the erythroid lineage was significant. Data in FIGS. 10E-10G are pooled from 2 independent experiments. […]

As for `C=CCNc1ncnc2ccc(Br)cc12` [SMER28, 6-Bromo-N-2-propenyl-4-quinazolinam], the Cytotoxicity result in series [1] is “not observed”. In addition, the “rescue of erythropoiesis after atg5 knockdown” value in series [2] is on record as “abolished”. Also, the “tolerability / overt toxicity” value in series [3] is given as “well tolerated”. For the same compound, the “embryos showing high levels of hemoglobin” value in series [4] (1 μM, 40 hpf, vehicle-treated controls 20%, p<0.05) is “Over 50%”. Further, in series [4] (treated for 40 hpf, benzidine staining), the “hemoglobin staining / RBC output in yolk sac” value was “robust increase; also recorded: rescues”.
